Test results published in patent US20260306460A1, “COMPOSITION FOR REMOVING AND INHIBITING SENESCENT CELLS, AND USES THEREOF” (LIFECEUTIX CO., LTD., priority 2023, published 2026).

How the values were obtained:
[1] = test system: HMGN1 secreted from senescent A549 cells; test: HMGN1 secretion (ELISA) from senescent A549 cancer cells, Example 12; type: cell-based, human; settings: senescent untreated = 100%; 30 μM; 90 μM for LX-305, 905, 1302, 1601, 1603, 2003, 2702, 2901, 3106; 270 μM for LX-1103, 2005, 2007;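 note: A549 cells made senescent by doxorubicin exposure, with DMSO-treated cells serving as the non-senescent control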
Experimental: (§1) Cells were treated with doxorubicin or control (DMSO) and cultured.

[2] = test system: senescent A549 cells; test: Viability of senescent A549 cancer cells (CellTiter-Glo), Example 12; type: cell-based, human; settings: 0 μM = 100
Experimental: as §1
Cancer cells in which aging was induced by treatment with doxorubicin were treated with the test compound at designated concentrations and measured using the CellTiter-Glo Luminescent Cell Viability Assay (Promega).

[3] = test system: HMGN1 secreted from senescent human cells; test: HMGN1 secretion (ELISA) from doxorubicin-induced senescent human cells, Example 11; type: cell-based; settings: senescent untreated = 100%; 30 μM; 90 μM for LX-305, 1302, 1603, 2005, 2702, 2901, 3106; 270 μM for LX-1103, 2007
[4] = test system: naturally aged mice; test: Anti-aging evaluation in naturally aged mice, Example 31, Table 55; type: in vivo, mouse; settings: for Femur Ctsk mRNA / Kidney Agtr1a mRNA / Liver IL6 mRNA / Liver MMP3 mRNA / Liver p16 mRNA / Open Field Test Time in Center: untreated = 100%; for Heart Sur2a mRNA / Joint Col2a1 mRNA / Skin Col1a1 mRNA / Skin SDF1 mRNA: untreated = 1.0; for Muscle Mass: untreated 0.64 g; for Fat Mass: untreated 0.82 g; for Cataract incidence: untreated 83%;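 for all read-outs here: Vehicle-dosed control mice received solution alone at matching volume, values compare test-compound-treated aged mice against that control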
[5] = test system: bleomycin-induced pulmonary fibrosis mice; test: Bleomycin-induced pulmonary fibrosis mice, Example 31, Table 56; type: in vivo, mouse; settings: untreated = 100%
Outline: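 After treatment with test compound or vehicle alone, lungs of bleomycin-induced pulmonary fibrosis mice were harvested. Total RNA extracted and gene expression quantified by qRT-PCR.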

[6] = test system: senescent human cells; test: Viability of doxorubicin-induced senescent human cells (CellTiter-Glo), Example 11; type: cell-based; settings: 0 μM = 100
Experimental: Cells in which senescence was induced by treatment with doxorubicin were treated with the test compound at designated concentrations and measured using the CellTiter-Glo Luminescent Cell Viability Assay (Promega).
(§2) After 3 days, cell viability was measured using CellTiter-Glo Luminescent Cell Viability Assay (Promega) or light microscopy.

[7] = test system: carbon tetrachloride-induced liver fibrosis mice; test: Carbon tetrachloride-induced liver fibrosis mice, Example 31, Table 57; type: in vivo, mouse; settings: CCl4-induced liver fibrosis mice, untreated = 100%
Outline: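 Mice with induced hepatic fibrosis received either the test compound or, as controls, an equal volume of vehicle solution alone. Once dosing ended, liver tissue was harvested and total RNA was isolated. cDNA was synthesized from this RNA, and quantitative RT-PCR was run on it to measure hepatic mRNA levels of the fibrosis- and senescence-related genes.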

[8] = test system: senescent foreskin cells; test: Survival of senescent human cells treated with supernatant (secreted fluid) from death-induced cells, Example 13; type: cell-based; settings: Table 8; supernatant from dying senescent cells treated at 30, 90 or 270 μM (as Example 11); senescent treated cells
Experimental: as §2
During this additional culture, by checking with an optical microscope, etc., the medium supernatants containing secreted fluid from normally proliferating and senescent cells in which cell death was induced were obtained. The obtained medium supernatant was replaced with the medium of normally proliferating and senescent cells, respectively, and cell survival rate was measured after 3 days.

SMILES	HMGN1 [1] [%]	Survival ([2]; 1.1 μM) [%]	Survival ([2]; 10 μM) [%]	Survival ([2]; 30 μM) [%]	Survival ([2]; […]) [%]	HMGN1 [3] [%]	Femur Ctsk mRNA [4] [%]	Heart Sur2a mRNA [4] [fold]	Joint Col2a1 mRNA [4] [fold]	Kidney Agtr1a mRNA [4] [%]	Liver IL6 mRNA [4] [%]	Liver MMP3 mRNA [4] [%]	Liver p16 mRNA [4] [%]	Open Field Test Time in Center [4] [%]	Skin Col1a1 mRNA [4] [Fold]	Skin SDF1 mRNA [4] [fold]	Muscle Mass [4] [g]	Fat Mass [4] [g]	Cataract incidence [4] [%]	Lung p16 mRNA [5]	other results
CN(Cc1cnc2nc(N)nc(N)c2n1)c1ccc(C(=O)N[C@@H](CCC(=O)O)C(=O)O)cc1 [LX-2901, Methotrexate]	189	89	90.4	92.3	87.8	167	51	1.7	4.0	67	55	72	64	167	1.7	1.8	0.69	0.90	59	72 (±5.7) %	Survival ([2]; 90 μM): 37.2%; Col1a1 mRNA [5]: 61 (±4.3) %; Survival ([6]; 1.1 μM): 103.3%; Survival ([6]; 10 μM): 104.8%; Survival ([6]; 30 μM): 93.6%; Survival ([6]; 90 μM): 49.9%; Survival ([6]; […]): 97.8%; Liver p16 mRNA [7]: 59 (±1.3) %; Col1a1 mRNA [7]: 73 (±3.6) %; Survival [8]: 97.5
Cc1nc(-c2nc(-c3ccc(OC(F)(F)F)cc3)no2)nn1Cc1cccc(N2CCC(S(C)(=O)=O)CC2)c1 [LX-3200]	305	94.9	61.6	1.6	91.7	234	68	1.4	1.3	62	67	71	77	188	1.4	1.6	0.69	1.03	72	76 (±5.7) %	Col1a1 mRNA [5]: 63 (±6.9) %; Survival ([6]; 1.1 μM): 92.2%; Survival ([6]; 10 μM): 14.3%; Survival ([6]; […]): 78.6%; Liver p16 mRNA [7]: 75 (±9.8) %; Col1a1 mRNA [7]: 80 (±9.6) %; Survival [8]: 54.9
